Values of other authors, collected in patent US6316468A, “Phenylindole derivatives as 5-HT2A receptor antagonists” (Merck Sharp & Dohme Ltd., priority 1997, dated 2001).

Key:
[1] = schizophrenic patients, multicentre, placebo-controlled study
[2] = system: apomorphine-induced stereotyped behaviour; conditions: animal models, preclinical studies
[3] = system: human dopamine D2 receptor

Q: Which results are given for COc1cccc(C(O)C2CCN(CCc3ccc(F)cc3)CC2)c1OC (single isomer, unassigned) [MDL-100,907, (+)-α-(2,3-dimethoxyphenyl)-1-[2-(4-fluorophenyl)-ethyl]-4-piperidinemethanol]?
A: antagonism of human 5-HT2A receptors (human 5-HT2A receptors): potent antagonist; efficacy for antipsychotic potential [1]: demonstrated efficacy; block of apomorphine-induced stereotyped behaviour [2]: failed to block apomorphine-induced stereotyped behaviour; activity at the human dopamine D2 receptor [3]: essentially devoid of activity
